Common to all, as to type: cell-based
The subject of one assay is human endothelial cells. The experiment in a line: F-actin cytoskeletal organization, activated β1 integrin and vinculin distribution (phalloidin, confocal). The note with it: 3-D fibrin gel, 2 days, 50 μM blebbistatin. As for the experimental part: To further study the effects of Fn matrix inhibition, additional cytological processes associated with angiogenesis were examined. Endothelial cells were cultured within 3-D or 2-D fibrin gels in the presence of the FUD or Del 29 peptides for 2 days. F-actin cytoskeletal organization was monitored following staining with Alexa 488-conjugated phalloidin. Cells also were stained with an antibody against activated β1 integrin or transfected with a GFP-tagged vinculin expression vector (pRK-vinculin-EGFP) to study distribution. Following counterstaining with Alexa 594-labeled phalloidin, fluorescence was monitored by confocal laser microscopy.
In the absence of Fn fibrillogenesis, an impaired ability of embedded endothelial cells to generate myosin-dependent forces and increase cytoplasmic stiffness was predicted to affect both Fn unfolding, as well as the ability of the cells to properly register the mechanical properties of the surrounding substratum (Wu et al. 1995. Cell, 83(5): 715-724; Zhong et al. 1998. J. Cell Biol., 141(2): 539-551; Baneyx et al. 2002. Proc. Natl. Acad. Sci. USA, 99(8): 5139-5143; Discher et al. 2005. Science, 310(5751): 1139-1143; Engler, supra; and Yoneda, supra). As such, the rheologic and functional characteristics of endothelial cells were assessed in the presence of the specific myosin ATPase inhibitor, blebbistatin. […]

Assay [1] relates to Human umbilical vein endothelial cells. Put plainly: Chromatin organization (GFP-H2B, H3K9me3) and histone H3/H4 acetylation. The following applies: 3-D culture, VEGF/HGF-stimulated, blebbistatin or nocodazole. From the text:
At sites of tissue damage, inflammation or neoplasia, fibrinogen is converted into a 3-D meshwork of fibrin fibrils that serve as a structural support for endothelial cells undergoing neovascularization (Chun et al. 2006. Cell, 125: 577-591; Hiraoka et al. 1998. Cell, 95: 365-377; Schafer and Werner. 2008. Nat. Rev. Mol. Cell Biol., 9: 628-638; Zhou et al. 2008. Genes Dev., 22: 1231-1243). This process can be recapitulated in vitro by embedding serum-supplemented human endothelial cells within a 3-D fibrin gel in the presence of the pro-angiogenic factors, VEGF and HGF. Human umbilical vein endothelial cells were isolated from umbilical cords by perfusion of the umbilical vein with type 3 collagenase (Worthington, Lakewood, N.J.) and cultured in Medium-199 (Invitrogen, Carlsbad, Calif.) with 20% human serum and 50 μg/ml endothelial cell growth supplement (ECGS; BD Biosciences, Franklin Lakes, N.J.). For 3-D culture, endothelial cells were suspended in a solution of thrombin and aprotinin (Sigma, St. Louis, Mo.) and mixed 1:1 with a solution of 6 mg/ml fibrinogen (Calbiochem, Gibbstown, N.J.). Vasculogenesis was triggered by treatment with 100 ng/ml VEGF, 50 ng/ml HGF (Genentech, San Francisco, Calif.). Fibronectin fibrillogenesis was tracked in 3-D by co-culture with human fibronectin (Sigma) labeled with Alexa-594 (Invitrogen).
Yet, multi-lobed nuclei and anomalous nuclear pore complex distributions can be observed in laminopathies, a pleiotropic series of genetic disorders wherein mutations in lamin or emerin impact chromatin organization, histone modifications, and transcriptional activity (Csoka et al., 2004. Aging Cell, 3: 235-243; Dechat et al., 2008. Genes Dev, 22: 832-853; Dillon, 2008. Dev Cell, 15: 182-186; Malhas et al., 2007. J. Cell Biol., 176: 593-603; Mendjan et al., 2006. Mol. Cell, 21: 811-823; Shumaker et al., 2006. Proc. Natl. Acad. Sci. USA, 103: 8703-8708; Tang et al., 2008. J. Cell Sci., 121: 1014-1024). To determine whether VEGF/HGF-dependent changes in nuclear shape similarly affect chromatin structure/function, chromatin packaging was tracked at the single-endothelial cell level by monitoring GFP-tagged histone H2B or pericentromeric constitutive heterochromatin localization. […] heterochromatin localization was visualized by immunostaining for trimethylated lysine 9 of histone H3 (H3K9me3) (Shumaker, supra; Tang, supra).
Histone acetylation can be regulated by chromatin positioning within the nucleus (Finlan et al., 2008. PLoS Genet, 4: e1000039; Somech et al., 2005. J. Cell Sci., 118: 4017-4025). Thus, the acetylation status of histones H3 and H4 was assessed as functional markers of changes in chromatin organization. […]

For assay [2] the test system is unchanged. The experiment in a line: Cytoskeletal organization (F-actin, β-tubulin, vimentin) and isometric tension/contractile force. The following applies: 3-D culture, VEGF/HGF-stimulated, blebbistatin or nocodazole.
Experimental: VEGF/HGF-stimulated endothelial cells were treated with either (a) blebbistatin to inhibit myosin ATPase function, or (b) nocodazole to prevent microtubule assembly under 3-D culture conditions (Salpingidou et al., 2007. J. Cell Biol., 178: 897-904; Zhou et al., supra).

As for `Cc1ccc2c(c1)C(=O)C1(O)CCN(c3ccccc3)C1=N2` (stereo not shown) [blebbistatin], in the assay with human endothelial cells, the cytoskeletal architecture reorganization result is given as “did not reorganize”. Moreover, in assay [1], the chromatin distribution result is given as “chromatin condensations at the nuclear periphery with increased interchromatin space”; the “levels of acetylated histones H3 and H4” value is “decreased levels”. Further, the “contractile force exerted on the 3-D ECM” value in assay [2] was “impairing”.
